In US12414960B2, “Analogues of oleuropein and oleacein and uses thereof” (Attica Sciences Ltd., priority 2020, dated 2025):

Assays:
[1] = ABTS radical cation scavenging assay; assay type: biochemical; details: NS = not statistically significant
From the text: The method of estimating antioxidant capacity, based on the ability to interact with the ABTS.+ radical cation was first performed by Miller et al. in 1993 (Miller, Nicholas et al., Clinical Science, 1993, 84: 407-412, “A novel method for measuring the antioxidant capacity and its application to monitoring the antioxidant status in premature neonates”). The mechanism of interaction of the antioxidant agents to be examined with the ABTS.+ radical is similar to that of the DPPH. radical, which can be inactivated either by the addition of an electron or by the addition of a hydrogen atom. However, unlike the DPPH. radical, which is a stable radical from the beginning, the ABTS.+ radical must be produced by the oxidation of ABTS. Thus, in order to estimate the antioxidant capacity of a substance, the formation of the ABTS.+ radical must first precede and the addition of the substance to be examined must follow. The addition of the antioxidant agent is performed after the production of the root ABTS.+ to avoid the interaction of the antioxidant agents with the oxidizing agents used for the oxidation of ABTS.
The oxidation of ABTS takes place either through chemical reactions with various reagents or through the action of enzymes such as peroxidases. The ABTS.+ radical from the moment it is formed is stable, has a green color and absorbs at 730 nm. When a substance with antioxidant activity is added to the solution, then the ABTS.+ radical is reduced by the addition of a hydrogen (or electron) atom, resulting in reduced visual absorption.
To assess the antioxidant capacity of the samples, the oxidation of ABTS was performed enzymatically through the action of horseradish peroxidase (HRP), in the presence of H2O2 (FIG. 3)
The anti-oxidant capacity of the GS compounds was evaluated by performing the ABTS assay as previously described (Kouka, Paraskevi et al., Oxid Med Cell Longev. 2019, Article ID 1870965). Briefly, in a total reaction volume of 1 mL in distilled water (dH2O), ABTS.^+ (1 mM), H2O2 (30 μM), and horseradish peroxidase (HRP) (6 μM) in 50 mM phosphate-buffered saline were added. The solution was incubated for 45 min at room temperature (RT) in the dark. Finally, 10 μL of the tested GS compound at various concentrations was added, and the absorbance was monitored on a Hitachi U-1900 radio beam spectrophotometer (serial no. 2023-029; Hitachi Ltd.) at 730 nm. In each experiment, a blank without the HRP was used, while the ABTS.^+ radical solution without the extract was used as the control. The RSC percentage of the tested extracts was calculated using the following equation: RSC (%)=[(ODcontrol−ODcompound)/ODcontrol]×100, where ODcontrol and OD sample are the optical density (OD) values of the control and the test sample, respectively.

[2] = test system: MKN-45 gastric cancer cells; assay: XTT cell growth assay, MKN-45; assay type: cell-based, human; details: NS = not statistically significant; for inhibition at 50 µM: Homo sapiens, MKN-45, 24 h, read-out: Effectiveness to suppress MKN-45 cell growth (cell growth inhibition)

SMILES | ABTS Radical Cation Scavenging Assay IC50 [1] | inhibition at 50 µM [2] | Effectiveness to suppress MKN-45 cell growth (cell growth inhibition) ([2]; 50 uM, 24 h)
C/C=C1/[C@H](OC2OC(CO)C(O)C(O)C2O)OC=C(C(=O)O)[C@H]1CC(=O)OCCc1ccc(O)c(O)c1 (stereo in doubt) [GS6, (2S,4S,E)-4-(2-(3,4-dihydroxyphenethoxy)-2-oxoethyl)-3-ethylidene-2{[(2R,3S,4R,5R,6S)-3,4,5-trihydroxy-6-(hydroxymethyl)tetrahydro-2H-pyran-2-yl]oxy}-3,4dihydro-2H-pyran-5-carboxylic acid] | 8.2 μg extract/mL | – | –
C/C=C(/C=O)[C@@H](CC=O)CC(=O)OCCOc1ccccc1 [GS24, (3S,4E)-4-formyl-3-(2-oxoethyl)-4-hexenoic acid 2-phenoxyethyl ester] | – | 35.4% | –
C/C=C(/C=O)[C@@H](CC=O)CC(=O)OCCCSC [GS28, (3S,4E)-4-formyl-3-(2-oxoethyl)-4-hexenoic acid 3-(methylthio)propyl ester] | – | 95% | highly effective

The next lines start with results.

ABTS Radical Cation Scavenging Assay IC50 [1] | SMILES | inhibition at 50 µM [2] | Effectiveness to suppress MKN-45 cell growth (cell growth inhibition) ([2]; 50 uM, 24 h)
20.9 μg extract/mL | C/C=C1/[C@H](O[C@@H]2O[C@H](CO)[C@@H](O)[C@H](O)[C@H]2O)OC=C(C(=O)OC)[C@H]1CC(=O)OCCc1ccc(O)c(O)c1 [GS1, oleuropein] | – | –
8 μg extract/mL | C/C=C(/C=O)[C@@H](CC=O)CC(=O)OCCc1ccc(O)c(O)c1 [GS17, (3S,4E)-4-formyl-3-(2-oxoethyl)-4-hexenoic acid 2-(3,4-dihydroxyphenyl)ethyl ester, reference compound] | – | –
38 μg extract/mL | C/C=C(/C=O)[C@@H](CC=O)CC(=O)OCCc1ccc(O)cc1 [GS19, (3S,4E)-4-formyl-3-(2-oxoethyl)-4-hexenoic acid 2-(4-hydroxyphenyl)ethyl ester, reference compound] | 44.4% | –
